From patent US6893846B2, “Primers for use in detecting beta-lactamases” (priority 1998, dated 2005)
≈ marks a conversion by molar mass, not a printed value. Like-named read-outs stand apart in the source and are kept apart here.

Tests used:
[1] = test system: K. pneumoniae 225; experiment: MicroScan Walkaway microdilution susceptibility test; type: cell-based, Klebsiella pneumoniae; conditions: for MIC: Klebsiella pneumoniae, 225, read-out: MicroScan MIC; for MicroScan susceptibility result: K. pneumoniae 225
[2] = test system: E. coli C600 transconjugant; conditions: disk diffusion, Tc = transconjugate E. coli C600
[3] = test system: K. pneumoniae 225; experiment: NCCLS disk diffusion assay; type: cell-based, Klebsiella pneumoniae; conditions: Kleb 225; for Zone Size: disk diffusion
[4] = test system: E. coli HB101 transformant (17 kb plasmid); conditions: disk diffusion, Tr (17 kb) = transformant E. coli HB101
[5] = test system: K. pneumoniae 225; experiment: NCCLS microdilution susceptibility test; type: cell-based, Klebsiella pneumoniae
[6] = test system: E. aerogenes; experiment: Disk diffusion susceptibility test; type: cell-based, Enterobacter aerogenes; conditions: all the E. aerogenes strains
Procedure: (§1) Antibiotic susceptibilities were determined by standard disk-diffusion (NCCLS Standard M2-A6) and agar-dilution (NCCLS Standard M7-A4) procedures. Disks were obtained from Becton Dickinson Microbiology Systems (Cockeysville, Md.). Disk-diffusion susceptibilities to the following antibiotics were determined, ampicillin; amoxicillin clavulanic acid; aztreonam; cefazolin; cefoxitin; cefuroxime; cefotaxime; ceftriaxone; ceftazidime; cefepime; imipenem; gentamicin; trimethoprim/sulfamethoxazole and ciprofloxacin. […] The following quality control strains were run simultaneously with the test organisms Escherichia coli ATCC 25922, Pseudomonas aeruginosa ATCC 27853, and E. coli ATCC 35218. Throughout this study, results were interpreted using NCCLS criteria for disk diffusion (NCCLS M2-A6) and broth dilution (NCCLS M7-A4).

[7] = test system: E. aerogenes; type: cell-based, Enterobacter aerogenes
Procedure: Antibiotic susceptibilities were determined by standard disk-diffusion (NCCLS Standard M2-A6) and agar-dilution (NCCLS Standard M7-A4) procedures. Disks were obtained from Becton Dickinson Microbiology Systems (Cockeysville, Md.). […] Throughout this study, results were interpreted using NCCLS criteria for disk diffusion (NCCLS M2-A6) and broth dilution (NCCLS M7-A4).

[8] = test system: beta-lactamases in sonic extracts of E. aerogenes; experiment: Isoelectric focusing overlay: cefotaxime hydrolysis, inhibitors, induction; conditions: cefoxitin at 1/4 of the MIC
[9] = test system: K. pneumoniae; experiment: Agar dilution MIC, South African isolates; type: cell-based, Klebsiella pneumoniae; conditions: tzp with tazobactam 4 μg/ml
Description: (§2) The strains were provided in response to a request for all strains of Enterobacteriaceae, lacking inducible beta-lactamases, that were intermediate or resistant to cefotaxime or ceftazidime. […]

[10] = test system: P. mirabilis; experiment: Agar dilution MIC, South African isolates; type: cell-based, Proteus mirabilis; conditions: 4 strains, tzp with tazobactam 4 μg/ml
Description: During a period of three months in 1993, […] strains of Klebsiella pneumoniae (13 blood, 5 burn, 7 wound, 11 tracheal isolates), 4 strains of Proteus mirabilis (all wound isolates) and 4 strains of Escherichia coli (1 blood, 1 burn, 2 wound isolates) were collected from patients at the following medical centers in South Africa: Tygerberg Hospital near Cape Town, King Edward VIII Hospital in Durban, Chris Hani Baragwanath Hospital in Soweto and Pretoria Academic Hospital in Pretoria. The strains were provided in response to a request for all strains of Enterobacteriaceae, lacking inducible beta-lactamases, that were intermediate or resistant to cefotaxime or ceftazidime. […] Therefore accurate prevalence data were not obtained.
Antibiotic susceptibility was determined by standard disk diffusion (NCCLS Standard M2-T4, 1994) and agar dilution (NCCLS Standard M7-T2, 1994) procedures. Standard powders of antimicrobial agents were kindly provided by the following companies: piperacillin and tazobactam (Lederle Laboratories, Wayne, N.J.); cefoxitin and imipenem, (Merck, Rathway, N.J.); cefotaxime, (Hoechst-Roussel Pharmaceuticals Inc., Somerville, N.J.); ceftazidime, (Glaxo Group Research Ltd., Greenford, England); aztreonam and cefepime, (Bristol-Myers Squibb, Princeton, N.J.). Disks for agar diffusion were obtained from Becton Dickinson Microbiology Systems (Cockeysville, Md.). For quality control purposes, the following quality control strains were run simultaneously with the test organisms E. coli ATCC 25922, Pseudomonas aeruginosa ATCC 27853, E. coli ATCC 35218, and Staphylococcus aureus ATCC 29213. Throughout this study, results were interpreted using NCCLS criteria for disk diffusion (NCCLS Standard M2-T4, 1994) and broth dilution (NCCLS Standard M7-T2, 1994).

[11] = test system: E. coli; experiment: Agar dilution MIC, South African isolates; type: cell-based, Escherichia coli; conditions: tzp with tazobactam 4 μg/ml
Description: as §2

[12] = test system: K. pneumoniae 225; experiment: Three-dimensional test (enzymatic inactivation of antibiotics); conditions: beta-lactamase-mediated hydrolysis by K. pneumoniae 225, lawn E. coli ATCC 25922
[13] = test system: E. coli C600N transconjugants; experiment: Susceptibility of transconjugants; type: cell-based, Escherichia coli; conditions: E. coli C600N transconjugants of E. aerogenes 187, 200, 220, 184
Procedure: as §1
[…]. The filter paper mating technique with overnight incubation at 37° C. were performed as described previously (Philippon et al., Antimicrob. Agents Chemother., 33:1131-1136 (1989)). Transconjugants were selected on LB (Luria Bertani) agar [Difco (Detroit, Mich.)] plates containing 12 μg per ml nalidixic acid and 20 μg per ml ampicillin.

[14] = 1 E. aerogenes strain with Bush group 1 and group 2be (SHV-3) enzymes
[15] = 1 E. aerogenes strain with Bush group 1 and group 2be (SHV-5) enzymes
[16] = 29 E. aerogenes strains with Bush group 1 and group 2be (SHV-4) enzymes
[17] = resistance phenotype Kpn1, 8 strains
[18] = resistance phenotype Kpn2, 28 strains
[19] = resistance phenotype Kpn3 (K. pneumoniae Pit 68), 1 strain
[20] = resistance phenotype Ec1, 3 strains
[21] = resistance phenotype Ec2, 1 strain

CC1COc2c(N3CCN(C)CC3)c(F)cc3c(=O)c(C(=O)O)cn1c23 (stereo not shown) [ofloxacin]
MIC [1]: 2 µg/mL (≈ 5.53 µM)

O=C(O)c1cn(C2CC2)c2cc(N3CCNCC3)c(F)cc2c1=O [ciprofloxacin]
Zone Size [2]: 31 mm | Disk diffusion interpretation [3]: susceptible | Zone Size [3]: 22 mm | Zone Size [4]: 31 mm | MIC [1]: 2 µg/mL (≈ 6.04 µM) | MIC ([5]; Klebsiella pneumoniae, 225): 0.5 µg/mL (≈ 1.51 µM) | Disk diffusion susceptibility [6]: susceptible

O=C1CN(/N=C/c2ccc([N+](=O)[O-])o2)C(=O)N1 [nitrofurantoin]
MIC [1]: > 64 µg/mL

C[C@@H](O)[C@H]1C(=O)N2C(C(=O)O)=C(S[C@@H]3CN[C@H](C(=O)N(C)C)C3)[C@H](C)[C@H]12 [meropenem]
MIC ([5]; Klebsiella pneumoniae, 225): 0.06 µg/mL (≈ 0.156 µM)

CC1(C)S[C@@H]2[C@H](NC(=O)[C@H](C(=O)O)c3ccsc3)C(=O)N2[C@H]1C(=O)O [ticarcillin]
MIC ([5]; Klebsiella pneumoniae, 225): > 64 µg/mL

CO[C@@]1(NC(=O)Cc2cccs2)C(=O)N2C(C(=O)O)=C(COC(N)=O)CS[C@@H]21 [cefoxitin]
Zone Size [2]: 7 mm | MIC range [7, 14]: >256 µg/mL | MIC range [7, 15]: >256 µg/mL | MIC range [7, 16]: >256 µg/mL | Zone Size [3]: 6 mm | Zone Size [4]: 25 mm | Inducible by cefoxitin ([8]; SHV-3 strain (1), Bush group 1 enzyme pI 8.3): yes | Inducible by cefoxitin ([8]; SHV-3 strain (1), Bush group 2be enzyme pI 6.9): no | Inducible by cefoxitin ([8]; SHV-4 strains (29), Bush group 1 enzyme pI 8.3): yes | Inducible by cefoxitin ([8]; SHV-4 strains (29), Bush group 2be enzyme pI 7.8): no | Inducible by cefoxitin ([8]; SHV-5 strain (1), Bush group 1 enzyme pI 8.3): yes | Inducible by cefoxitin ([8]; SHV-5 strain (1), Bush group 2Be enzyme pI 8.0): no | MIC ([5]; Klebsiella pneumoniae, 225): > 64 µg/mL | MIC range [9, 17]: 2 to 4 µg/mL | MIC range [9, 18]: 2 to 8 µg/mL | MIC range [9, 19]: > 128 µg/mL | MIC range ([9]; resistance phenotype Kpn3 (K. pneumoniae Pit 68), 1 strain, listed as fox): >128 µg/mL | MIC range [10]: 2 to 4 µg/mL | MIC range [11, 20]: 4 µg/mL | MIC range [11, 21]: 8 µg/mL | three dimensional test [12]: positive

C[C@H]1COc2c(N3CCN(C)CC3)c(F)cc3c(=O)c(C(=O)O)cn1c23 [levofloxacin]
MIC [1]: 2 µg/mL (≈ 5.53 µM)

COCC1=C(C(=O)O)N2C(=O)[C@@H](NC(=O)/C(=N\OC)c3csc(N)n3)[C@H]2SC1 [cefpodoxime]
MIC ([5]; Klebsiella pneumoniae, 225): 64 µg/mL (≈ 150 µM)

CC(=O)OCC1=C(C(=O)O)N2C(=O)[C@@H](NC(=O)Cc3cccs3)[C@H]2SC1 [cephalothin]
MIC ([5]; Klebsiella pneumoniae, 225): > 64 µg/mL

CO/N=C(\C(=O)N[C@@H]1C(=O)N2C(C(=O)O)=C(COC(N)=O)CS[C@H]12)c1ccco1 [cefuroxime]
MicroScan susceptibility result [1]: Resistant | MIC [1]: > 16 µg/mL | Disk diffusion susceptibility [6]: resistant

CO[C@@]1(NC(=O)C2SC(=C(C(N)=O)C(=O)O)S2)C(=O)N2C(C(=O)O)=C(CSc3nnnn3C)CS[C@@H]21 (stereo partly shown) [cefotetan]
Zone Size [2]: 11 mm | Zone Size [3]: 12 mm | Zone Size [4]: 30 mm | MIC [1]: 16 µg/mL (≈ 27.8 µM)

gentamicin
Zone Size [2]: 8 mm | MIC range [7, 14]: 8 µg/mL | MIC range [7, 15]: >128 µg/mL | MIC range [7, 16]: 1 to 16 µg/mL | susceptibility after transfer of plasmids encoding SHV beta-lactamase genes [13]: resistance | Zone Size [3]: 8 mm | Zone Size [4]: 25 mm | MicroScan susceptibility result [1]: Resistant

CCN1CCN(C(=O)N[C@@H](C(=O)N[C@@H]2C(=O)N3[C@@H]2SC(C)(C)[C@@H]3C(=O)O)c2ccccc2)C(=O)C1=O [piperacillin]
MIC ([5]; Klebsiella pneumoniae, 225): > 64 µg/mL | MIC range [9, 19]: 64 µg/mL | MIC range [10]: 128 µg/mL | MIC range [11, 20]: >128 µg/mL | MIC range [11, 21]: >128 µg/mL

C=CC1=C(C(=O)O)N2C(=O)[C@@H](NC(=O)/C(=N\OCC(=O)O)c3csc(N)n3)[C@H]2SC1 [cefixime]
MIC ([5]; Klebsiella pneumoniae, 225): > 64 µg/mL

amoxicillin/clavulanate
MIC ([5]; NCCLS microdilution, Mueller-Hinton broth, K. pneumoniae 225): 64 µg/mL | Disk diffusion susceptibility [6]: resistant

NCC[C@H](O)C(=O)N[C@@H]1C[C@H](N)[C@@H](O[C@H]2O[C@H](CN)[C@@H](O)[C@H](O)[C@H]2O)[C@H](O)[C@H]1O[C@H]1O[C@H](CO)[C@@H](O)[C@H](N)[C@H]1O [amikacin]
Zone Size [4]: 12 mm | MicroScan susceptibility result [1]: Resistant | MIC [1]: > 32 µg/mL

piperacillin/tazobactam
Zone Size [2]: 14 mm | Zone Size [3]: 15 mm | Zone Size [4]: 30 mm | MIC range [9, 17]: 2 to 4 µg/mL | MIC range [9, 19]: 16 µg/mL | MIC range [10]: 0.25 to 0.5 µg/mL | MIC range [11, 20]: 1 µg/mL | MIC range [11, 21]: 32 µg/mL

Cc1nnc(SCC2=C(C(=O)O)N3C(=O)[C@@H](NC(=O)Cn4cnnn4)[C@H]3SC2)s1 [cefazolin]
MIC ([5]; Klebsiella pneumoniae, 225): > 64 µg/mL | Disk diffusion susceptibility [6]: resistant

NC[C@H]1O[C@H](O[C@H]2[C@H](O)[C@@H](O[C@H]3O[C@H](CO)[C@@H](O)[C@H](N)[C@H]3O)[C@H](N)C[C@@H]2N)[C@H](N)C[C@@H]1O [tobramycin]
MicroScan susceptibility result [1]: Resistant | MIC [1]: > 8 µg/mL

O=C(N[C@H](CO)[C@H](O)c1ccc([N+](=O)[O-])cc1)C(Cl)Cl [chloramphenicol]
Zone Size [2]: 12 mm | Zone Size [3]: 8 mm | Zone Size [4]: 22 mm | MicroScan susceptibility result [1]: Resistant | MIC [1]: > 16 µg/mL

CC1(C)S[C@@H]2[C@H](NC(=O)[C@H](N)c3ccccc3)C(=O)N2[C@H]1C(=O)O [ampicillin]
Zone Size [4]: 7 mm | Disk diffusion susceptibility [6]: resistant

C[C@@H](O)[C@H]1C(=O)N2C(C(=O)O)=C(SCCN=CN)C[C@H]12 [imipenem]
Zone Size [2]: 23 mm | MIC range [7, 14]: 0.5 µg/mL (≈ 1.67 µM) | MIC range [7, 15]: 1 µg/mL (≈ 3.34 µM) | MIC range [7, 16]: 0.5 µg/mL (≈ 1.67 µM) | Zone Size [3]: 22 mm | Zone Size [4]: 33 mm | MIC ([5]; Klebsiella pneumoniae, 225): 1 µg/mL (≈ 3.34 µM) | MIC range [9, 17]: 0.12 µg/mL | MIC range [9, 18]: 0.12 to 1 µg/mL | MIC range [9, 19]: 0.12 µg/mL | MIC range [10]: 0.5 to 1 µg/mL | MIC range [11, 20]: 0.12 µg/mL | MIC range [11, 21]: 0.12 µg/mL

CO/N=C(\C(=O)N[C@@H]1C(=O)N2C(C(=O)[O-])=C(C[N+]3(C)CCCC3)CS[C@H]12)c1csc(N)n1 [cefepime]
MIC ([5]; Klebsiella pneumoniae, 225): 1 µg/mL (≈ 2.08 µM) | MIC range [9, 18]: 0.5 to 4 µg/mL | MIC range [10]: 2 µg/mL | MIC range [11, 21]: 2 µg/mL
